Laboratory results as given in publication PMC5384650 (Molecular microbiology, 2016).

Biological target: T1, threonine dehydratase (IlvA) (Salmonella enterica, UniProt P20506)
T1 sequence (P20506 1-514): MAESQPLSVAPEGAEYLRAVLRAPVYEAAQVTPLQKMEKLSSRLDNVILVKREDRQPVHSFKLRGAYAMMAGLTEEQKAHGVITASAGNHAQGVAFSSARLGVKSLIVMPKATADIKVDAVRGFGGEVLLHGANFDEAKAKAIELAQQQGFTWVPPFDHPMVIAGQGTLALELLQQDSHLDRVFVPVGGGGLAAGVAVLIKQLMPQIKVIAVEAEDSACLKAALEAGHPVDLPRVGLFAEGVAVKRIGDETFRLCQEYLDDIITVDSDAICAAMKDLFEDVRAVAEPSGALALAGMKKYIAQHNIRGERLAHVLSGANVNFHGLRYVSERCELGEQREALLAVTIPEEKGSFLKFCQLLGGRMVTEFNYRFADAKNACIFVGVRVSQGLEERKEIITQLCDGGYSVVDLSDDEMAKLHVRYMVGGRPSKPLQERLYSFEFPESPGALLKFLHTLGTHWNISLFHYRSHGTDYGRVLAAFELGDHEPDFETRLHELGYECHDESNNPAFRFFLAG
Type: biochemical

Compound: NC[C@H](N)C(=O)O [Dap, L-2,3-diaminopropionate]
- Ki: 1700 µM
